According to US4507318A, “1-Aryl 2-aminomethyl cyclopropane carboxylates (Z) as drugs in the treatment of pain” (Pierre Fabre S.A., priority 1981, dated 1985):
Structures can show the parent of a compound that is named as a salt. Where two headings read alike, the source gives them in different places.

Columns and labels:
Solubility in water = format: physicochemical
Solubility in DMA = format: physicochemical
mice [1] = experiment: Hot Plate, analgesic activity; format: in vivo; conditions: 50 mg/kg SC; mice
Experimental: The products were tested subcutaneously in mice (50 mg/kg) by the method of N. B. EDDY and D. LEIMBACH, J. Pharm. Exptl. Therap., 1953, 107, 385.

mice [2] = experiment: Writhing Syndrome (P.B.Q.), analgesic activity after I.P. p-benzoquinone; format: in vivo; conditions: Mus musculus, po, P.O., read-out: Writhing Syndrome PBQ-ED50 (P.O.)
Experimental: (a) Writhing Syndrome (P.B.Q.)
After I.P. administration of p-benzoquinone to mice, the products were tested by the method of R. OKUN, S. C. LIDDON and L. LASAGNA, J. Pharmacol. Exptl. Therap., 1963, 139, 107. The results are expressed in ED50 in Table 1.

[3] = Toxicity study (ED50 orally and intraperitoneally, method of Miller and Tainter); conditions: in vivo
Experimental: The most interesting compounds of the present invention were subjected to toxicity studies.
The ED50 was determined orally and intraperitoneally and calculated by the method of MILLER and TAINTER (Proc. Soc. Exper. […]. 1944, 57, 261).

[4] = ip, intraperitoneally, read-out: ED50 intraperitoneally
[5] = po, per os, read-out: ED50 per os

Solubility in water (in words) (Solubility in water)	Solubility in DMA (Solubility in DMA)	Compound	Hot Plate reaction time (mice [1])	ED50 (mice [2])	LD50 [3, 4]	LD50 [3, 5]
insoluble in water	2%	CCOC(=O)[C@]1(c2ccccc2)C[C@@H]1CN(Cc1ccccc1)Cc1ccccc1 (relative stereo) [Example 11, Hydrochloride of 1-phenyl-1-ethoxycarbonyl 2-dibenzyl amino-methyl cyclopropane (Z)]	–	–	–	–
insoluble in water	5%	CCOC(=O)[C@]1(c2ccccc2)C[C@@H]1CN(C)C1CCCCC1 (relative stereo) [Example 19, Fumarate of 1-phenyl 1-ethoxycarbonyl 2-N-methyl-N-cyclohexyl-aminomethyl cyclopropane (Z)]	–	–	–	–
insoluble in water	50%	CCOC(=O)[C@]1(c2ccccc2)C[C@@H]1CN1CCC(c2ccccc2)CC1 (relative stereo) [Example 20, Hydrochloride of 1-phenyl 1-ethoxycarbonyl 2-(4'-phenylpiperidino)methyl cyclopropane (Z)]	–	–	–	–
–	–	CCOC(=O)[C@]1(c2ccc(Cl)c(Cl)c2)C[C@@H]1CN(C)C (relative stereo) [Example 45, Hydrochloride of 1-(3,4 dichlorophenyl) 1-ethoxycarbonyl 2-dimethylaminomethyl cyclopropane (Z)]	26 s	60 mg/kg	170 mg/kg	550 mg/kg
–	–	COC(=O)[C@]1(c2ccc(N)cc2)C[C@@H]1CN(C)C (relative stereo) [Example 46]	25 s	34 mg/kg	100 mg/kg	420 mg/kg
–	–	COC(=O)[C@]1(c2ccc([N+](=O)[O-])cc2)C[C@@H]1CN(C)C (relative stereo) [Example 47, Hydrochloride of 1-(p-nitrophenyl) 1-methoxycarbonyl 2-dimethylaminomethyl cyclopropane (Z)]	20 s	21 mg/kg	250 mg/kg	1000 mg/kg
–	–	CCOC(=O)[C@]1(c2ccc(OC)cc2)C[C@@H]1CN(C)C (relative stereo) [Example 48, Hydrochloride of 1-(p-methoxyphenyl) 1-ethoxycarbonyl 2-dimethylaminomethyl cyclopropane (Z)]	29 s	95 mg/kg	110 mg/kg	420 mg/kg
